{"source": "PubChem BioAssay AID330", "about": "(DTP/NCI, 2004)", "system": "P388 leukemia ip, CD2F1 mice, survival T/C", "assay": "NCI In Vivo Anticancer Drug Screen. Data for tumor model P388 Leukemia (intraperitoneal) in CD2F1 (CDF1) mice", "conditions": "endpoint: median survival time, higher = longer survival", "outline": "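Mice carrying the transplanted tumor received test compound or vehicle. Survival was recorded in each group, and the value is the treated-group measurement divided by that of the vehicle-treated control group.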", "key": {"[1]": {"conditions": "dose: 50.0 mg/kg/injection, schedule: Q01DX009 (ip), vehicle: Klucel (hydroxypropylcellulose) (HPC)"}, "[2]": {"conditions": "dose: 100.0 mg/kg/injection, schedule: Q01DX009 (ip), vehicle: Klucel (hydroxypropylcellulose) (HPC)"}, "[3]": {"conditions": "dose: 50.0 mg/kg/injection, schedule: Q01DX005 (ip), vehicle: Klucel (hydroxypropylcellulose) (HPC)"}, "[4]": {"conditions": "dose: 100.0 mg/kg/injection, schedule: Q01DX005 (ip), vehicle: Klucel (hydroxypropylcellulose) (HPC)"}}, "note": "Where “and” joins values, the source holds several entries; their conditions need not be identical. Identical values can stand only once. Toxic doses and inconclusive results are not listed.", "data": [{"smiles": "C/C(=N\\NC(N)=S)c1ccccc1O", "values": [{"measurement": "T/C", "setting": "[1]", "value": "99 % of control"}, {"measurement": "T/C", "setting": "[2]", "value": "111 % of control"}, {"measurement": "T/C", "setting": "dose: 200.0 mg/kg/injection, schedule: Q01DX009 (ip), vehicle: Klucel (hydroxypropylcellulose) (HPC)", "value": "102 % of control"}]}, {"smiles": "O=C(CNCCCCNCCCNCC(=O)C(O)C(O)C(O)CO)C(O)C(O)C(O)CO", "note": "(stereo not drawn)", "values": [{"measurement": "T/C", "setting": "dose: 30.0 mg/kg/injection, schedule: Q01DX005 (ip), vehicle: saline", "value": "104 % of control"}, {"measurement": "T/C", "setting": "dose: 60.0 mg/kg/injection, schedule: Q01DX005 (ip), vehicle: saline", "value": "101 % of control"}]}, {"smiles": "C[CH2][Sn]([CH2]C)([S]CCS(=O)(=O)O)[S]CCS(=O)(=O)O", "values": [{"measurement": "T/C", "setting": "dose: 0.93 mg/kg/injection, schedule: Q01DX005 (ip), vehicle: saline", "value": "95 % of control"}, {"measurement": "T/C", "setting": "dose: 1.87 mg/kg/injection, schedule: Q01DX005 (ip), vehicle: saline", "value": "95 % of control"}]}, {"smiles": "CCOC(=O)Nc1ccc(S(=O)(=O)c2ccc(Nc3ccnc4cc(Cl)ccc34)cc2)cc1", "values": [{"measurement": "T/C", "setting": "[3]", "value": "94 % of control"}, {"measurement": "T/C", "setting": "[4]", "value": "98 % of control"}, {"measurement": "T/C", "setting": "dose: 200.0 mg/kg/injection, schedule: Q01DX005 (ip), vehicle: Klucel (hydroxypropylcellulose) (HPC)", "value": "91 % of control"}]}, {"smiles": "C=C1C(O)C23CCC4C(C(=O)O)(C(=O)O)CC(OC5OC(CO)C(O)C(OC(=O)CCc6ccccc6)C5NC(=O)CC(C)C)CC4(C)C2CCC1(O)C3", "note": "(stereo not drawn)", "values": [{"measurement": "T/C", "setting": "dose: 0.25 mg/kg/injection, schedule: Q01DX005 (ip), vehicle: Klucel (hydroxypropylcellulose) (HPC)", "value": "96 % of control"}, {"measurement": "T/C", "setting": "dose: 0.5 mg/kg/injection, schedule: Q01DX005 (ip), vehicle: Klucel (hydroxypropylcellulose) (HPC)", "value": "98 % of control"}, {"measurement": "T/C", "setting": "dose: 1.0 mg/kg/injection, schedule: Q01DX005 (ip), vehicle: Klucel (hydroxypropylcellulose) (HPC)", "value": "100 % of control"}, {"measurement": "T/C", "setting": "dose: 3.12 mg/kg/injection, schedule: Q01DX005 (ip), vehicle: Klucel (hydroxypropylcellulose) (HPC)", "value": "101 % of control"}]}, {"smiles": "CC(C)(CO)CBr", "values": [{"measurement": "T/C", "setting": "dose: 100.0 mg/kg/injection, schedule: Q01DX009 (ip), vehicle: saline sonified", "value": "100 % of control"}, {"measurement": "T/C", "setting": "dose: 200.0 mg/kg/injection, schedule: Q01DX009 (ip), vehicle: saline sonified", "value": "95 % of control"}, {"measurement": "T/C", "setting": "dose: 400.0 mg/kg/injection, schedule: Q01DX009 (ip), vehicle: saline sonified", "value": "95 % of control"}]}, {"smiles": "C[CH2][Sn]([Br])([CH2]C)[c]1c(CN(C)C)cccc1CN(C)C", "values": [{"measurement": "T/C", "setting": "dose: 3.12 mg/kg/injection, schedule: Q01DX009 (ip), vehicle: saline", "value": "99 % of control and 100 % of control"}, {"measurement": "T/C", "setting": "dose: 6.25 mg/kg/injection, schedule: Q01DX009 (ip), vehicle: saline", "value": "104 % of control and 106 % of control and 95 % of control"}, {"measurement": "T/C", "setting": "dose: 12.5 mg/kg/injection, schedule: Q01DX009 (ip), vehicle: saline", "value": "100 % of control and 95 % of control"}, {"measurement": "T/C", "setting": "dose: 25.0 mg/kg/injection, schedule: Q01DX009 (ip), vehicle: saline", "value": "104 % of control and 95 % of control"}]}, {"smiles": "COc1cc2c(cc1OC)C13CCC(O)CC1=CC2(C)O3", "note": "(stereo not drawn)", "values": [{"measurement": "T/C", "setting": "dose: 50.0 mg/kg/injection, schedule: Q04DX002 (ip), vehicle: saline with Tween-80", "value": "96 % of control"}, {"measurement": "T/C", "setting": "dose: 100.0 mg/kg/injection, schedule: Q04DX002 (ip), vehicle: saline with Tween-80", "value": "96 % of control"}, {"measurement": "T/C", "setting": "dose: 200.0 mg/kg/injection, schedule: Q04DX002 (ip), vehicle: saline with Tween-80", "value": "89 % of control"}]}, {"smiles": "O=C(C[n+]1ccc2ccccc2c1)c1ccc(-c2ccccc2)cc1", "values": [{"measurement": "T/C", "setting": "dose: 12.5 mg/kg/injection, schedule: Q01DX009 (ip), vehicle: Klucel (hydroxypropylcellulose) (HPC)", "value": "118 % of control"}, {"measurement": "T/C", "setting": "dose: 25.0 mg/kg/injection, schedule: Q01DX009 (ip), vehicle: Klucel (hydroxypropylcellulose) (HPC)", "value": "98 % of control and 116 % of control"}, {"measurement": "T/C", "setting": "[1]", "value": "101 % of control and 115 % of control"}, {"measurement": "T/C", "setting": "[2]", "value": "101 % of control and 122 % of control"}]}, {"smiles": "CC(C)(C)N(C(=O)OCC1c2ccccc2-c2ccccc21)C(CO)C(=O)O", "note": "(stereo not drawn)", "values": [{"measurement": "T/C", "setting": "[3]", "value": "100 % of control"}, {"measurement": "T/C", "setting": "[4]", "value": "107 % of control"}]}, {"smiles": "COc1cccc2c1C(=O)c1c(O)c3c(c(O)c1C2=O)C[C@@](O)(C(=O)CN1CCOCC1)C[C@@H]3OC1CC(N)C(O)C(C)O1", "note": "(stereo partly drawn)", "values": [{"measurement": "T/C", "setting": "dose: 1.3 mg/kg/injection, schedule: Q01DX001 (ip), vehicle: water", "value": "116 % of control"}, {"measurement": "T/C", "setting": "dose: 1.56 mg/kg/injection, schedule: Q01DX009 (ip), vehicle: water", "value": "103 % of control"}, {"measurement": "T/C", "setting": "dose: 1.8 mg/kg/injection, schedule: Q01DX001 (ip), vehicle: water", "value": "114 % of control"}, {"measurement": "T/C", "setting": "dose: 2.4 mg/kg/injection, schedule: Q01DX001 (ip), vehicle: water", "value": "116 % of control"}, {"measurement": "T/C", "setting": "dose: 3.13 mg/kg/injection, schedule: Q01DX009 (ip), vehicle: water", "value": "115 % of control"}, {"measurement": "T/C", "setting": "dose: 3.2 mg/kg/injection, schedule: Q01DX001 (ip), vehicle: water", "value": "119 % of control"}, {"measurement": "T/C", "setting": "dose: 4.2 mg/kg/injection, schedule: Q01DX001 (ip), vehicle: water", "value": "119 % of control"}, {"measurement": "T/C", "setting": "dose: 5.56 mg/kg/injection, schedule: Q01DX009 (ip), vehicle: water", "value": "156 % of control"}, {"measurement": "T/C", "setting": "dose: 8.33 mg/kg/injection, schedule: Q01DX009 (ip), vehicle: water", "value": "162 % of control"}, {"measurement": "T/C", "setting": "dose: 10.0 mg/kg/injection, schedule: Q01DX001 (ip), vehicle: water", "value": "119 % of control"}, {"measurement": "T/C", "setting": "dose: 18.8 mg/kg/injection, schedule: Q01DX009 (ip), vehicle: water", "value": "153 % of control"}, {"measurement": "T/C", "setting": "dose: 50.0 mg/kg/injection, schedule: Q01DX001 (ip), vehicle: water", "value": "162 % of control"}, {"measurement": "T/C", "setting": "dose: 100.0 mg/kg/injection, schedule: Q01DX001 (ip), vehicle: water", "value": "174 % of control"}]}]}
